Series [1] has as its system yeast deletion collection. As to the kind of experiment: Genome-wide fitness assay in yeast (pooled deletion strains). In kind it is cell-based. The note with it: for Sensitivity of DNA damage/repair genes (NER, HRR, PRR): phosphaplatins at 200 μM final concentration. An excerpt: The around 6000 strains in the yeast deletion collection can be studied in a single culture by using a microarray to detect the 20 bp DNA “barcodes” or “tags” contained in each strain. Barcode intensities are compared across time-points or across conditions to analyze the relative fitness of each strain. This development of the pooled fitness assay has greatly facilitated the functional annotation of the yeast genome by making genome-wide gene-deletion studies faster and easier, and has led to the development of high throughput methods for studying drug action in yeast. Pooled screens can be used for identifying gene functions, measuring the functional relatedness of gene pairs in order to group genes into pathways, identifying drug targets, and determining a drug's mechanism of action. This process involves five main steps: preparing aliquots of pooled cells, pooled growth, isolation of genomic DNA and PCR amplification of the barcodes, array hybridization (or next generation sequencing), and data analysis.
The pooled fitness assay involves five main steps (FIG. 3). First, the deletion collection is grown on solid media in arrayed format and the resulting cells are pooled and frozen to make cell aliquots that will be used for starting growth experiments. Cells are then grown in the desired conditions, typically for 5 to 20 generations. The barcodes from the resulting cell samples are prepared for hybridization by isolation of the genomic DNA and PCR amplification of the barcodes. The barcodes are amplified in two reactions to prevent crosstalk between the uptag and downtag primers. The resulting PCR products are then hybridized to tag arrays with one array needed per cell sample. Data is then analyzed to determine differences in strain representation between pairs of samples.
To analyze the genome wide effects of pyrodach-2 and -4, we screened 2 collections of strains, 1200 essential genes as heterozygote deletion mutants (reducing functional gene dose from 2 to 1) and 4800 non-essential genes as complete deletions (reducing functional gene dose from 2 to 0). Both compounds were screened at the highest dose possible (200 μM final concentration) to increase the likelihood of finding compound-specific sensitive strains.
Fitness profiling of pooled deletion strains involves […] main steps: • 1. Strains are first pooled at approximately equal abundance. • 2. The pool is grown competitively in the condition of choice and a control condition. If a gene is sensitive to the treatment condition, the strain carrying this deletion will grow more slowly and become under-represented relative to the control culture (purple strain). Resistant strains will grow faster and become over-represented (not shown). • 3. Genomic DNA is isolated from cells harvested at the end of pooled growth, and barcodes are amplified from the genomic DNA with universal primers. • 4. PCR products are then hybridized to an array that detects the tag sequences, giving tag intensities for the two samples. • 5. The treatment and control sample are then compared to determine the relative fitness of each strain. Note that only the purple strain is described as sensitive to the condition. While the red strain grows more slowly than the blue strain in the treatment, this growth difference in not of interest because it matches that seen in the control.

In series [2] the test system is VEGFR2 gene. As to the kind of experiment: Quantitative real-time PCR, VEGFR2 gene expression in A2780 cells. The settings on record: A2780 (cisplatin-sensitive); positive = manifold increase, negative = relative decrease vs untreated cells; cisplatin 7 μM, pyrodach-4 180 μM. In kind it is cell-based, human. On the procedure:
(§1) Evaluations of selected gene expressions in Human Umbilical Vein Endothelial Cells (HUVEC) and Human Ovarian Cancer Cells by quantitative reverse transcriptase polymerase chain reaction (PCR)
(§2) Quantitative real-time PCR experiments were performed to estimate the expression of a selection of targeted genes. HUVEC cells (Lonza Walkersville, Frederick, Md.) were cultured on 0.1% gelatin-coated petri dishes by following standard protocols recommended by the vendor in a humidified incubator by maintaining 5% CO2 at 37° C. Human epithelial ovarian cancer cells (A2780) and cisplatin-resistant cells (A2780/C30) were cultured in RPMI 1640 with or without cisplatin (7 μM) and pyrodach-4 (180 μM) for 0, 3, 12 and 24 hours. […] HUVECs were treated with or without cisplatin (7 μM) or pyrodach-4 (90 or 180 μM) for various durations ranging from 1 hr. to 6 hrs.
(§3) Both treated and untreated cancer cells were maintained in RPMI 1640 medium with 10% fetal bovine serum, 2 μmol L-glutamine, 100 units/mL penicillin-streptomycin and 0.25 units/mL insulin solution, at 37° C. with 5% CO2. RNA was isolated from both the treated and untreated cells. […] The quantity and purity of RNA were determined by UV spectroscopy (NanoDrop 2000 Thermo Scientific, Wilmington, Del.). A minimum absorbance ratio index (ratio of the absorbance measured at 260 nm over that at 280 nm) of 1.9 was used as an acceptable purity. […] The target gene was labeled with a blue dye (FAM, absorbance: 494 nm, emission: 518 nm) while the reference gene was tagged with a green dye (VIC, absorbance: 538 nm, emission: 554 nm). The cDNA concentrations were selected such that the threshold cycle (Ct) values for the target genes were between 17 and 32, most sensitive for the fluorescence detection by ABI StepOnePlus™ instrument used for the measurements.
(§4) The threshold cycle number (Ct), the point at which the fluorescence of the qPCR reaction just exceeds the threshold fluorescence of the detection system, was determined. […]

Series [3] relates to VEGFR2 gene. Nature of the series: Quantitative real-time PCR, VEGFR2 gene expression in A2780/C30 cells. In kind it is cell-based, human. The note with it: A2780/C30 (cisplatin-resistant); positive = manifold increase, negative = relative decrease vs untreated cells; cisplatin 7 μM, pyrodach-4 180 μM. On the procedure:
as §1, §2, §3, §4
In general terms: Quantitative PCR measures a nucleic acid by following its amplification.

In another series the test system is A2780/C30 cells. As to the kind of experiment: Cell death detection assay with ELISA, A2780/C30 cells. The series is classed as cell-based, human. The settings on record: 7 μM cisplatin or 180 μM D4. For orientation: ELISA stands for enzyme-linked immunosorbent assay.
The mark [4] stands for this setting: yeast deletion strains, 200 μM final concentration.

Structures are written as SMILES.

The record followed here is patent US20130236568A1, “PHOSPHAPLATINS HAVING ANTI-ANGIOGENIC, ANTI-METASTATIC, AND PRO-APOPTOTIC PROPERTIES AND USES THEREOF” (Ohio University, priority 2011, published 2013).

Take `NC1CCCCC1N.O=P([O-])(O)OP(=O)([O-])O.[Pt+2]` (racemic) [pyrodach-2, trans-(±)-1,2-cyclohexanediamine(pyrophosphato) platinum(II)]: the “Tolerability by the yeast cell (few sensitive strains)” value in series [1] (highest dose possible, 200 μM final concentration) was “well tolerated by the cell”. Besides, in series [1] (setting [4]), the Compound-specific sensitive strain entry is recorded as “induced sensitivity in the strain avo2”; the “Functions enriched among sensitive strains” value is 1) iron and copper transport and 2) metal-regulated transcription factors. Further, the “Sensitivity of DNA damage/repair genes (NER, HRR, PRR)” value in series [1] (yeast deletion strains) is “not a single gene involved in DNA repair or other DNA metabolic processes showed any sensitivity as a mutant”.

In the case of `N.N.[Cl][Pt][Cl]` [Cisplatin, cisplatin, reference compound], in series [1] (yeast deletion strains), the “Sensitivity of DNA damage/repair genes (NER, HRR, PRR)” value is “induced expression of those genes related to the DNA response”. Also, the entries for the “Normalized expression of VEGFR2 gene” value with VEGFR2 gene [2] and in the series with VEGFR2 gene [3] were 2.5 and 2.0, respectively. Besides, the “Apoptotic cell death (ELISA absorbance)” value with A2780/C30 cells is on record as “insignificant increase in absorbance”.
